Test [1] concerns the target Calcium/calmodulin-dependent protein kinase kinase 1 (Homo sapiens) (UniProt Q8N5S9). Put plainly: Inhibition of human CAMKK1 at 18.6 nM by HotSpot assay relative to control.
In test [2] the target is CDK4/Cyclin D3 (Homo sapiens) (UniProt P11802+P30281). The experiment in a line: Inhibition of human CDK4/cyclin D3 at 18.6 nM by HotSpot assay relative to control. Format: protein-complex assay.
The target in test [3] is Dual specificity tyrosine-phosphorylation-regulated kinase 1B (Homo sapiens) (UniProt Q9Y463). Put plainly: Inhibition of human DYRK1B at 18.6 nM by HotSpot assay relative to control.
Test [4] concerns the target T1, cAMP-dependent protein kinase catalytic subunit PRKX (Homo sapiens) (UniProt P51817).
T1 sequence (whole entry): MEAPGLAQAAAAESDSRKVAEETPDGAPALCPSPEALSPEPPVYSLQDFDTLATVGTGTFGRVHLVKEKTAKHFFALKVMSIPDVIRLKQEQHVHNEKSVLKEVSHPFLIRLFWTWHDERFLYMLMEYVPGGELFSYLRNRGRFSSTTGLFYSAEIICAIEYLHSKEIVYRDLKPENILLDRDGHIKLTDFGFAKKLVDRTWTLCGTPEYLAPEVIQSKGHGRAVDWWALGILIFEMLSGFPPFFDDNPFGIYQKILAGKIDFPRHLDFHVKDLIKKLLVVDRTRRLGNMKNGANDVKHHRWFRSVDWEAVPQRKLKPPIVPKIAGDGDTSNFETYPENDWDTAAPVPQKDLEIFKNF
Put plainly: Inhibition of human PRKX at 18.6 nM by HotSpot assay relative to control.

Test [5] deals with T2, Dual serine/threonine and tyrosine protein kinase (Homo sapiens) (UniProt Q6XUX3).
T2 sequence (whole entry): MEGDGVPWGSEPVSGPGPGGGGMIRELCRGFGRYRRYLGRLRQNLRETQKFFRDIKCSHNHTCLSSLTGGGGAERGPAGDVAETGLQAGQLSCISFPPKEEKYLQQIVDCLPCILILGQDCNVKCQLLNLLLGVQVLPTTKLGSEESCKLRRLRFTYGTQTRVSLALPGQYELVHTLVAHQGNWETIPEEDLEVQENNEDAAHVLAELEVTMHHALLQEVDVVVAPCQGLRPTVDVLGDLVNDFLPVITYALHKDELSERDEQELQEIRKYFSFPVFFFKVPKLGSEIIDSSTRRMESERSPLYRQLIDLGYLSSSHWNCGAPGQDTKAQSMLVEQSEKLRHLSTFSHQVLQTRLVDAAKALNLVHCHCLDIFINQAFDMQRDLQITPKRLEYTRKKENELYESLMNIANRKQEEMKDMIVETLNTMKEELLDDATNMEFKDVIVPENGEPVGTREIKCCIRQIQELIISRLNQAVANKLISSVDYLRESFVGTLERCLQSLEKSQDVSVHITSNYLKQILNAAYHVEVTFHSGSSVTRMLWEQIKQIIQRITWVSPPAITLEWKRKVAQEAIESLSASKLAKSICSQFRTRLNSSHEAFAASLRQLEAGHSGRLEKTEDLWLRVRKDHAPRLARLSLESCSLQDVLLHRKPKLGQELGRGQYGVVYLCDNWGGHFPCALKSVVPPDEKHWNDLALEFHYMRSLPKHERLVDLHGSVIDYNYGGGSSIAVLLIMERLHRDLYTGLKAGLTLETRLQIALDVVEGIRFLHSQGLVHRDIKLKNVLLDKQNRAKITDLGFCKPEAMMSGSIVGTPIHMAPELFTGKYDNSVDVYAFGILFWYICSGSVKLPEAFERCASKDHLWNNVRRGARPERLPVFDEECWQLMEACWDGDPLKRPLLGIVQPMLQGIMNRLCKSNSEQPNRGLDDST
Put plainly: Inhibition of human RIPK5 at 18.6 nM by HotSpot assay relative to control.

The target of test [6] is Serine/threonine-protein kinase WNK3 (Homo sapiens) (UniProt Q9BYP7). The experiment in a line: Inhibition of human WNK3 at 18.6 nM by HotSpot assay relative to control.
Test [7] concerns the target T3, Aurora kinase C (Homo sapiens) (UniProt Q9UQB9).
T3 sequence (whole entry): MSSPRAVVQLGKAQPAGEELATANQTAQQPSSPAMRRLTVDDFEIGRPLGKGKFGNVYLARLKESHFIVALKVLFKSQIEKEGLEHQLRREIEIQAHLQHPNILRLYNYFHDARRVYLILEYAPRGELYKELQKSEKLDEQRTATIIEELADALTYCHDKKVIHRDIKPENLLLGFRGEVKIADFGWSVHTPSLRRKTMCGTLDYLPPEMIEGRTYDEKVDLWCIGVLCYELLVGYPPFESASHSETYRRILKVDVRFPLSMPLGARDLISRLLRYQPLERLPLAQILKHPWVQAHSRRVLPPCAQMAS
Put plainly: Inhibition of human Aurora C at 1.82 nM by HotSpot assay relative to control.

Test [8] deals with Serine/threonine-protein kinase N2 (Homo sapiens) (UniProt Q16513). The experiment in a line: Inhibition of human PRK2 at 1.82 nM by HotSpot assay relative to control.
In test [9] the target is T4, Inhibitor of nuclear factor kappa-B kinase subunit epsilon (Homo sapiens) (UniProt Q14164).
T4 sequence (whole entry): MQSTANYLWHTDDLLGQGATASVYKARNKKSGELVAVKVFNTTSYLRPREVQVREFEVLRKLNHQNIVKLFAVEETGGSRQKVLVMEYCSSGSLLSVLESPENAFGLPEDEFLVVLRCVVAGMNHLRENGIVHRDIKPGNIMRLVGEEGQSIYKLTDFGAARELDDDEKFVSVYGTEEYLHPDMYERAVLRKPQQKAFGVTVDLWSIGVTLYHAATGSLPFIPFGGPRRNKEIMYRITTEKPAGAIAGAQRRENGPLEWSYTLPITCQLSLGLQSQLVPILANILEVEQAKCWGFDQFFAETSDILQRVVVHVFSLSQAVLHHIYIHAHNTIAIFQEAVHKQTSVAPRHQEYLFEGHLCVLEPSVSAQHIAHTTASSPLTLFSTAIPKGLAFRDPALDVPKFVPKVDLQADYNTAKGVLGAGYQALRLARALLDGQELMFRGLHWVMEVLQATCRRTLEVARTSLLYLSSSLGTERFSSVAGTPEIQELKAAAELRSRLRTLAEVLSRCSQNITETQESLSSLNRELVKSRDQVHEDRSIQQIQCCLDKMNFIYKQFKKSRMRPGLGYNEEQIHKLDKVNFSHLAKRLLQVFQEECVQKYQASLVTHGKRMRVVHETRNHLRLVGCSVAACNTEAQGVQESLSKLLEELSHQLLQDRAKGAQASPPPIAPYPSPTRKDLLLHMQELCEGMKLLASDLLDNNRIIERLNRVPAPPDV
Particulars: dose 1.82 nM.
Description: Inhibition of human IKKe at 1.82 nM by HotSpot assay relative to control

Serine/threonine-protein kinase N2 (Homo sapiens), sequence (Q16513 whole entry, looked up): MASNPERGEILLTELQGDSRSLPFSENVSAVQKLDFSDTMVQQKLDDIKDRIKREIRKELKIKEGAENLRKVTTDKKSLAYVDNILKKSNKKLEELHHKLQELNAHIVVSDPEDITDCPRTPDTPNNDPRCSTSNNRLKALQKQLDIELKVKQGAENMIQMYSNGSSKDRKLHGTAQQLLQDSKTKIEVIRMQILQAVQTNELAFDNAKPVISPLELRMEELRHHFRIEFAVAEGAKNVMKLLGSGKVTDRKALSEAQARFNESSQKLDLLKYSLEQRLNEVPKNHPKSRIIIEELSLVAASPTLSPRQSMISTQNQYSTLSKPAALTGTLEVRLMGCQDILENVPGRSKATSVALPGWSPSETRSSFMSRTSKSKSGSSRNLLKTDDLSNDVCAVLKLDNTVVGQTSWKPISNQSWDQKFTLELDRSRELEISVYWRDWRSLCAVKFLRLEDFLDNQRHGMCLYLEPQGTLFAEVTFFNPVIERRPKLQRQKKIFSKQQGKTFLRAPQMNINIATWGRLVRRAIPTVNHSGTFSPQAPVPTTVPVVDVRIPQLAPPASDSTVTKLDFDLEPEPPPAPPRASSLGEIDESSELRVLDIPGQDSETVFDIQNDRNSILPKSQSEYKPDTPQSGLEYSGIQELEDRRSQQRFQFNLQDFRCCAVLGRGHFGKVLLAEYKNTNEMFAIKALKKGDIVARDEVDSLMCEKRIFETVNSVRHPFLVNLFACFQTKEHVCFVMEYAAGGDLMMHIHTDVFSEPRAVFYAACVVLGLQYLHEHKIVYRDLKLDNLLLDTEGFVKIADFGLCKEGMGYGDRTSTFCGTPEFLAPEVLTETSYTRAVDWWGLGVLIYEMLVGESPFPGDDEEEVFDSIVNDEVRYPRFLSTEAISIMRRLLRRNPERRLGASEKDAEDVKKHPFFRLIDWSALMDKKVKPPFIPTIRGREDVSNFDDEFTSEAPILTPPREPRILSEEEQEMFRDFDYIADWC
Serine/threonine-protein kinase WNK3 (Homo sapiens), sequence (Q9BYP7 whole entry): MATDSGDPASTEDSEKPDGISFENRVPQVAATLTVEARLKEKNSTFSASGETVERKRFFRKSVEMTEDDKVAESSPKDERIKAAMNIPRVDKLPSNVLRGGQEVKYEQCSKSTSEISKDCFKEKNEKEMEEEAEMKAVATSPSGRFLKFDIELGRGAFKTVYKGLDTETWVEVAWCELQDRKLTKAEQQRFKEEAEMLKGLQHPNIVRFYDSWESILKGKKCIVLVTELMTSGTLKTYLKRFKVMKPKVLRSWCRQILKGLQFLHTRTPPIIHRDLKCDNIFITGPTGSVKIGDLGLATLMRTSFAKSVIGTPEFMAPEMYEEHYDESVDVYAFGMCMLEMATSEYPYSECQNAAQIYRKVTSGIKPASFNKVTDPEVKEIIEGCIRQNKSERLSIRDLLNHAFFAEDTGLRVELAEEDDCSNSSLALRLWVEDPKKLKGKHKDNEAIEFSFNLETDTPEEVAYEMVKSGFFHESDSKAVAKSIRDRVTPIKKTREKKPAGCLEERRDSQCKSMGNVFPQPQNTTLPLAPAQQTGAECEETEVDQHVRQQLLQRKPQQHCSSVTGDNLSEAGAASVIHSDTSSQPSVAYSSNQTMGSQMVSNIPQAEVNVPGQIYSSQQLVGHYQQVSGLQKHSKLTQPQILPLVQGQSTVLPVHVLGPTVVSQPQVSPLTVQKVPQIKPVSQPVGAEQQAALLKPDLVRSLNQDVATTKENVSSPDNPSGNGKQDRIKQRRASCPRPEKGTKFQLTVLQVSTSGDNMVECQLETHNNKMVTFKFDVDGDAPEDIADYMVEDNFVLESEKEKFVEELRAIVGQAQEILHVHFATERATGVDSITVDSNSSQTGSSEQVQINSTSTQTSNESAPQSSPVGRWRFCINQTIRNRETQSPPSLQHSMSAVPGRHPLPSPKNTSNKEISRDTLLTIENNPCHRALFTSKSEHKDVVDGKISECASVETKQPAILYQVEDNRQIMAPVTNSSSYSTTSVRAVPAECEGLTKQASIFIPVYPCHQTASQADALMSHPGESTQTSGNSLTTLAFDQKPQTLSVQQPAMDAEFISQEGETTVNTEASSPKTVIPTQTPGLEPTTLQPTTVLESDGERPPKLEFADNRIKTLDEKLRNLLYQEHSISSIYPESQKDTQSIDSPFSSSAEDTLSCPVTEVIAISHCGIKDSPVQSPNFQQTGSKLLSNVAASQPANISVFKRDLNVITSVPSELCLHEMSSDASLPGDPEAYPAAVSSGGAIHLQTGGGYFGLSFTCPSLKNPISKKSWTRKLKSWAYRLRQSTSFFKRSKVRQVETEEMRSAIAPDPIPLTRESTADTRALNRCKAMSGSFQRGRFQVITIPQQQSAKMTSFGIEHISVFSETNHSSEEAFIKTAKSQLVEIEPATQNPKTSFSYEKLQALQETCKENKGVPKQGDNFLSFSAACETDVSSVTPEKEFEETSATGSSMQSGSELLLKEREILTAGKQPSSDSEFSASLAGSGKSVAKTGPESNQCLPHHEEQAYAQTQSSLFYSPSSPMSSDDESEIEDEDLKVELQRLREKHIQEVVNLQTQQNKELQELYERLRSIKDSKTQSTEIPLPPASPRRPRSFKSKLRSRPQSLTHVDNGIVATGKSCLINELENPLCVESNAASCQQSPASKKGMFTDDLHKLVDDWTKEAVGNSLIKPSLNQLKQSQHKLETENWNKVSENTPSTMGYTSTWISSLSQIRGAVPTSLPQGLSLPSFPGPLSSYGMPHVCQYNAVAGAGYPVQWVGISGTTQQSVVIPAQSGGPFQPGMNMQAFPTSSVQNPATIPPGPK
Calcium/calmodulin-dependent protein kinase kinase 1 (Homo sapiens), sequence (Q8N5S9 whole entry, looked up): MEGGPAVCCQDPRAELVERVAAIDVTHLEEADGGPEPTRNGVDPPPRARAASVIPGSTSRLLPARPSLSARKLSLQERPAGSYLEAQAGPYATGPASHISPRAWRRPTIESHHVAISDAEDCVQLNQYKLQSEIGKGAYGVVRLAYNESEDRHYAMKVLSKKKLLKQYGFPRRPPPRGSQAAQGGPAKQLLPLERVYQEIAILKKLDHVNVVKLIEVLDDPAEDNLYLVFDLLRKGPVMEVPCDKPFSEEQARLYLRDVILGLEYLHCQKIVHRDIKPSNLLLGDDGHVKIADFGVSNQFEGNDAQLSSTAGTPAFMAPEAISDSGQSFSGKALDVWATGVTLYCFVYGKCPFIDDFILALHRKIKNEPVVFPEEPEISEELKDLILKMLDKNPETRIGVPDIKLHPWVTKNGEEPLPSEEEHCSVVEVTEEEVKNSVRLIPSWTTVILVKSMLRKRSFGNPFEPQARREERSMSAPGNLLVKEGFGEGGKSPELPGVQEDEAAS
Dual specificity tyrosine-phosphorylation-regulated kinase 1B (Homo sapiens), sequence (Q9Y463 whole entry, looked up): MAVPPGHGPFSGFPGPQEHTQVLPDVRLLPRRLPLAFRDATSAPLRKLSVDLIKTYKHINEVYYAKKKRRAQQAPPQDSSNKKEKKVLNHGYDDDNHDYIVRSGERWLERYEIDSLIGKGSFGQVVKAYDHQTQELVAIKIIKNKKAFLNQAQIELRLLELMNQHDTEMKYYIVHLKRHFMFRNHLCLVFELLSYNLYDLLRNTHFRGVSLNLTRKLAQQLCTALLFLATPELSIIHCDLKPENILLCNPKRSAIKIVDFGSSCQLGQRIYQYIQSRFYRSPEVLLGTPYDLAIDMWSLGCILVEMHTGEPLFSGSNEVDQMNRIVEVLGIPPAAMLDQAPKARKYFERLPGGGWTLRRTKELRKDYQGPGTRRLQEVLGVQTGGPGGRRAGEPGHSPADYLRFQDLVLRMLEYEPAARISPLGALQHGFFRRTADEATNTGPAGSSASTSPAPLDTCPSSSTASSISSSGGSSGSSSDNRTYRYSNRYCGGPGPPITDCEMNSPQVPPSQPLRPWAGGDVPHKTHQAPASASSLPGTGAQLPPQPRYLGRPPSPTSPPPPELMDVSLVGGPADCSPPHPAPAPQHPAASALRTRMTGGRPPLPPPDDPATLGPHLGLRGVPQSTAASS

A word on the inhibition: it is the change of the read-out against control, counted positive when it falls. `C[C@]1(O)C[C@@H](c2nc(-c3ccc4ccc(-c5ccccc5)nc4c3)c3c(N)nccn32)C1`: the inhibition in [1] was 5.54%; in [2], 2.46%; in test [3], 1.39%; in test [4], -0.35%; in [5] it was -0.63%; in test [6], 6.05%.

Turning to `C[C@@]1(C(=O)Nc2ccc(F)nc2)CCCN1c1nc(Nc2cc(C3CC3)n[nH]2)c2cccn2n1`, the results for the inhibition in test [7], in [8] and in test [9] were 35.7%, -0.34% and 5.87%, respectively.

For the origin of these results see ChEMBL document CHEMBL5653615 (J Biol Chem, 2013).
